Data from patent US20240034758A1, “NOVEL PEPTIDE AND USE THEREOF” (MEDI & GENE, priority 2020, published 2024).

Test system: mHypoE-N41 hypothalamic cells
Test: Expression of appetite-promoting genes in hypothalamic cells
Format: cell-based
Details: 100 nM, 24 hours; vs PBS control
Procedure: Furthermore, to confirm the appetite-regulating effect of the functional peptide in mHypoE-N41 hypothalamic cells, the hypothalamic cells were treated with PBS (control) and 100 nM mouse-derived functional peptide (experimental group) for 24 hours.

Substance: human-derived functional peptide: Human IF1-derived peptide, SEQ ID NO: 2: GSDQSENVDRGAGSIREAGGAFGKREQAEEERYFRAQSREQLAALKK (listed as Homo sapiens)
- decrease of Agrp gene level compared to the control: 47.5%
- decrease of NPY gene level compared to the control: 59.6%

Substance: mouse-derived functional peptide: Mouse IF1-derived peptide, SEQ ID NO: 1: VSDSSDSMDTGAGSIREAGGAFGKREKAEEDRYFREKTKEQLAALRK (listed as Mus musculus)
- decrease of Agrp gene level compared to the control: 50.2%
- decrease of NPY gene level compared to the control: 48.8%
